By IC30 is commonly meant the concentration at which the effect reaches the 30% level. In general, IC50 refers to the concentration needed to halve the response being measured.

Experiment [1] is filed under the species Cavia porcellus. Put plainly: In vitro inhibition against electrical field stimulated neuronal cholinergic contractions of guinea pig trachea. The class given is functional.
Experiment [2] is described as follows: Inhibitory activity against Gamma-aminobutyric acid A (GABA-A) receptor. More on the design: species or system Rattus norvegicus.

`NCC(CS(=O)O)c1ccc(Cl)cc1` (racemic): the IC30 in experiment [1] (Cavia porcellus, Trachea, read-out: IC30) came to 22 µM. Further, in experiment [2], the IC50 is over 100 µM. For the compound `NCC(CS(=O)O)c1ccc(Cl)cc1` (single isomer, unassigned; (-)), the IC30 in experiment [1] stood at 13.9 µM.

For the origin of these results see ChEMBL document CHEMBL1128116, “Synthesis and resolution of -(aminomethyl)-4-chlorobenzeneethanesulfinic acid a potent gabaB receptor ligand” (Bioorg Med Chem Lett, 1995).
